As usually defined, the Emax is the size of the effect at its maximum, as opposed to the concentration needed.

This test deals with T1, recombinant human Meningioma Expressed Antigen 5 (MGEA5), also referred to as O-GlcNAcase (OGA) (Homo sapiens, UniProt O60502).
T1 construct: Full length OGA enzyme was purchased at OnGene (cat #TP322411); purchased OnGene (so in the source)
T1 sequence (O60502 1-916): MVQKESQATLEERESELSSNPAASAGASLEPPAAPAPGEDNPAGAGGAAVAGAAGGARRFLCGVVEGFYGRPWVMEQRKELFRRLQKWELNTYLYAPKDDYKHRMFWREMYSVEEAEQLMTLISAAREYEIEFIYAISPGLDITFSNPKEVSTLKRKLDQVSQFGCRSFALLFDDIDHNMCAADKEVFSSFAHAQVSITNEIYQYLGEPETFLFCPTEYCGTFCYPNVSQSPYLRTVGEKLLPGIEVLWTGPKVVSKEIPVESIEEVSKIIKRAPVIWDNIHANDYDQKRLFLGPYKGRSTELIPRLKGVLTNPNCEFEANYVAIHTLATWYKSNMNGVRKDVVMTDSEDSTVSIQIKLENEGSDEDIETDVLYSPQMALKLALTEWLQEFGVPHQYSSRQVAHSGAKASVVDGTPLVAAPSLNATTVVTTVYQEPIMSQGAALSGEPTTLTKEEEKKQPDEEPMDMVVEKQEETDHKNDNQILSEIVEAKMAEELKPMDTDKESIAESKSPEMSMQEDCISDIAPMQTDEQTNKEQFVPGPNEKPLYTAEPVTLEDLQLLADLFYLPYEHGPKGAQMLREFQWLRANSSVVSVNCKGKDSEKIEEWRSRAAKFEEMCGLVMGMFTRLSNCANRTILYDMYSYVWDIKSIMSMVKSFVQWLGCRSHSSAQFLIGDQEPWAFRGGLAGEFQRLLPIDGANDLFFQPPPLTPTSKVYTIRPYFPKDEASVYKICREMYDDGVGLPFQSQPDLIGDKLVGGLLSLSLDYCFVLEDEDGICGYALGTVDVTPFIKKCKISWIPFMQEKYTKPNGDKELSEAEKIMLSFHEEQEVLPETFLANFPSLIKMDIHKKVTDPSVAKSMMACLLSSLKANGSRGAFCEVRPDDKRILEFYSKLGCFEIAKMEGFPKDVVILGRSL
Put plainly: OGA biochemical assay (inhibition of FM-GlcNAc hydrolysis, fluorescence). The settings on record: for Emax: maximal effect, read-out: Enzymatic Emax (%); for IC50: read-out: Enzymatic hOGA, pIC50 (converted). The essentials:
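Full-length recombinant OGA (2 nM) pre-incubated with compound 60 min at room temperature, then FM-GlcNAc (100 µM final) added in citrate/phosphate buffer pH 7.2 with 0.005% Tween-20. After 6 h at room temperature, stopped with carbonate pH 11.0; fluorescein read at 485/538 nm; IC50 and Hill coefficient from curve fit.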

With `Cc1cc([C@H]2CCCN(C(C)c3cnc4c(c3)OCCN4)C2)cc(C)n1` (single isomer, unassigned) [Product 135], the maximal response (Emax) was 101% and the IC50 is 7.94 nM.
For `Cc1cc(OC[C@H]2CCCN(C(C)c3nc4c(cc3F)OCCO4)C2)cc(C)n1` (single isomer, unassigned) [Product 155] the same measures were 99% and 1.26 nM.

The values are drawn from patent publication US20210300943A1, “OGA INHIBITOR COMPOUNDS” (Janssen Pharmaceutica NV, priority 2018, published 2021).
